Test results from US20030229067A1, “Pyrrolopyrimidine A2b selective antagonist compounds, their synthesis and use” (priority 2001, published 2003).

Assays:
human A2B receptor = target: T1, human A2B receptor (Homo sapiens, UniProt P29275); test: Radioligand binding assay ([3H]-DPCPX competition), membranes of HEK293 stably expressing human A2B receptor; conditions: for selectivity for the A2B receptor relative to the A1, A2A, and A3 receptor: fold selectivity A2B over A1, A2A and A3 receptors
T1 construct: expressed in transfected cells; membranes prepared from the cells
T1 sequence (P29275 1-332): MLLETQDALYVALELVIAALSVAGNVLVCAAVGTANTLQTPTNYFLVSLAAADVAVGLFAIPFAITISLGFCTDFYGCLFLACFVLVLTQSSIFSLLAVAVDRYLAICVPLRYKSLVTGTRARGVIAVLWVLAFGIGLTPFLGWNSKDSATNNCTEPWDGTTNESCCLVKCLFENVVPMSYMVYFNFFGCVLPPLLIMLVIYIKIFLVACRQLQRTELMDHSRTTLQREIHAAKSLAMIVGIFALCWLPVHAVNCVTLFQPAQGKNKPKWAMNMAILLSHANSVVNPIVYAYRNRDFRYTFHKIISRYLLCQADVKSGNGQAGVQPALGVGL
Source text: Materials. [^3H]—DPCPX [cyclopentyl-1,3-dipropylxanthine] (120 Ci/mmol) was purchased from New England Nuclear (Boston, Mass.). The adenosine deaminase and complete protease inhibitor cocktail tablets were purchased from Boehringer Mannheim Corp. (Indianapolis, Ind.). Cell culture reagents were from Life Technologies (Grass Island, N.Y.) except for serum that was from Hyclone (Logan, Utah).
Cell line. HEK293 stably expressing the human A2B receptor were used for radioligand binding assays. Cells were grown in DMEM Glutamax containing 10% FBS, 0.2 mg/ml G418 at 37° C. in 5% CO2/95% atmosphere.
Membrane Preparation. Cells were washed with cold PBS buffer twice, scraped off the plates, and centrifuged at 1000×g for 5 minutes. Cells were homogenized with ice-cold buffer of 5 mM Tris, pH 7.4, 5 mM EDTA, 5 mM EGTA, protease inhibitor cocktail tablets and incubated for 10 min on ice. The homogenate was centrifuged at 32,000×g for 30 min. The membranes were resuspended in buffer of 50 mM Tris, pH 7.4, 0.6 mM EDTA, 5 mM MgCl2, stored at −80° C. until use. Protein concentration was determined by the methods of Bradford.
Radioligand binding assay. Membranes were homogenized in buffer containing 10 mM HEPES-KOH, pH 7.4 containing 1.0 mM EDTA; 2 U/ml adenosine deaminase; and 0.1 mM Benzamidine and incubated for 30 min at room temperature. Dissociation constants of radioligand (Kd values) and maximum binding sites (Bmax) were determined in saturation binding experiments. Saturation binding assays were carried out in a reaction mixture containing 50 μl of membrane suspension, 25 μl of 4% DMSO, 25 μl of increasing amounts of radioligand, [^3H]—DPCPX (final concentration 1-200 nM). […] Nonspecific binding was measured in the presence of […] NECA. Compounds were dissolved in
DMSO and then diluted with 4% DMSO; the final maximum DMSO concentrations were 1%. […] Reactions were terminated by rapid filtration over GF/C filters using a cell harvester. The filters were washed ten times with 0.4 ml of ice-cold buffer containing 10 mM HEPES-KOH, pH 7.4. The filters were dried, covered with scintillation fluid and counted with a TopCount.

SMILES | selectivity for the A2B receptor relative to the A1, A2A, and A3 receptor (human A2B receptor; binding assays) | other results
CC(=O)NCCNc1nc(-c2ccccc2)nc2[nH]c(COC3CCN(CCc4ccccc4Cl)CC3)cc12.CS(=O)(=O)O [17.7.MsOH, N-[2-(-6-{1-[2-(2-Chlorophenyl)ethyl]piperidine-4-yloxymethyl}-2-phenyl-7H-pyrrolo[2,3-d]pyrimidin-4-ylamino)ethyl]acetamide methanesulfonic acid salt] | 24 × | –
CC(=O)NCCNc1nc(-c2ccccc2)nc2[nH]c(C(=O)N3CCN(CCCc4ccc(Cl)cc4)CC3)cc12.CS(=O)(=O)O [26.135.MsOH, N-[2-(6-{4-[3-(4-Chlorophenyl)-propyl]-piperazine-1-carbonyl}-2-phenyl-7H-pyrrolo[2,3-d]pyrimidin-4-ylamino)-ethyl]-acetamide methanesulfonate salt] | 17 × | –
CC(=O)NCCNc1nc(-c2ccccc2)nc2[nH]c(C(=O)N3CCC(C#N)(c4ccccc4Cl)CC3)cc12.CS(=O)(=O)O [26.237.MsOH, N-(2-{6-[4-(2-Chlorophenyl)4-cyanopiperidine-1-carbonyl]-2-phenyl-7H-pyrrolo[2,3-d]pyrimidin-4-ylamino}-ethyl)-acetamide methanesulfonic acid salt] | 33 × | –

Second part, led by results:

selectivity for the A2B receptor relative to the A1, A2A, and A3 receptor (human A2B receptor; binding assays) | SMILES | other results
26 × | CC(=O)NCCNc1nc(-c2ccccc2)nc2[nH]c(COC3CCN(CCc4ccccc4Cl)CC3)cc12 [17.7, N-[2-(6-{1-[2-(2-Chlorophenyl)ethyl]piperidin-4-yloxymethyl}-2-phenyl-7H-pyrrolo[2,3-d]pyrimidin-4-ylamino)ethyl]acetamide] | Ki (human A2B receptor; [3H]-DPCPX competition binding): 5 nM
57 × | COC1(c2ccccc2Cl)CCN(C(=O)c2cc3c(NCCNC(C)=O)nc(-c4ccccc4)nc3[nH]2)CC1 [26.42, N-(2-{6-[4-(2-Chlorophenyl)-4-methoxypiperidine-1-carbonyl]-2-phenyl-7H-pyrrolo[2,3-d]pyrimidin-4-ylamino}-ethyl)-acetamide] | melting point: 201 to 202 °C
82 × | CC(=O)NCCNc1nc(-c2ccccc2)nc2[nH]c(C(=O)N3CCN(c4ccc(Cl)cc4)CC3)cc12 [26.71, N-(2-{6-[4-(4-Chlorophenyl)-piperazine-1-carbonyl]-2-phenyl-7H-pyrrolo[2,3-d]pyrimidin-4-ylamino}-ethyl)-acetamide] | receptor profile in words (selectivity listing) (human A2B receptor; binding assays, A2B vs A1, A2A, A3): A1/A2B dual antagonist
19 × | CC(=O)NCCNc1nc(-c2ccccc2)nc2[nH]c(C(=O)N3CCN(CCCc4ccc(Cl)cc4)CC3)cc12 [26.135, N-[2-(6-{4-[3-(4-Chlorophenyl)-propyl]-piperazine-1-carbonyl}-2-phenyl-7H-pyrrolo[2,3-d]pyrimidin-4-ylamino)-ethyl]-acetamide] | –
57 × | CC(=O)NCCNc1nc(-c2ccccc2)nc2[nH]c(C(=O)N3CCC(C#N)(c4ccccc4Cl)CC3)cc12 [26.237, N-(2-{6-[4-(2-Chlorophenyl)-4-cyanopiperidine-1-carbonyl]-2-phenyl-7H-pyrrolo[2,3-d]pyrimidin-4-ylamino}-ethyl)-acetamide] | –
